In article PMC10825133, “Repurposing proteasome inhibitors for improved treatment of triple-negative breast cancer” (Cell Death Discovery, 2024):
Read-outs that look alike come from different tables or passages of the source. Residues, ends and D or L forms follow the SMILES beside them. *: point of attachment. Cbz = O=C(OCc1ccccc1)*

Legend:
[1] = tested on: eight TNBC cell lines (BT-549, CAL-148, HCC1806, HCC38, HCC70, MDA-MB-436, MDA-MB-453, MDA-MB-468); assay: Monotherapy drug screen, mean across the TNBC cell lines; details: for cytotoxic effect at the highest dose / area under the dose response curve (AUC), mean ± SD: TNBC cell lines; for cytotoxic effect at the highest dose: by GRmax; for IC50: read-out: GR50 (mean ± SD)
Method: (§1) Eighteen pharmaceutical compounds were purchased from Selleckchem (Supplementary Table 2). Stock solutions were prepared using dimethyl sulfoxide (DMSO; Merck), physiological saline (sodium chloride 0.9%) or Milli-Q water, and stored at −80 °C. […] Matched concentration solvent vehicle controls were used for each drug concentration. The drug screens were performed in triplicate and repeated three (monotherapy) or two (combination therapy) times (Fig. 7).
(§2) The optimal seeding density per 96-well was determined for each cell line as previously described. The cells were seeded at a density of 4.0 × 10^3 to 7.5 × 10^3 (cell type dependent) in 96-well clear, flat-bottom microplates (Corning Life Sciences, Sigma-Aldrich) in 100 µl complete culture medium (Supplementary Table 1) and cultured for 24 h. Cell viability was determined using the resazurin assay in untreated cells at the time of plating (t = 0) and treated cells after 24 h drug treatment (Fig. 7). Percentage cell viability was calculated as 100% × (absorbance of treated cells – absorbance of background controls) / (absorbance of matched solvent vehicle controls – absorbance of background controls). The area under the curve (AUC), half-maximal inhibitory concentration (IC50), drug potency (GR50), and drug efficacy (GRmax) were determined for each compound using the GRmetrics (version 1.20.0) package in R. The monotherapy data were evaluated with the IDACombo (version 1.0.2) package in R to predict potential drug combinations (Table 1). SynergyFinder (version 3.2.10) package in R was used to identify synergistic drug combinations.
(§3) Eighteen pharmaceutical compounds were purchased from Selleckchem. […] The solubility of the compound was enhanced by pre-heating the solvent (lukewarm), if necessary. […] The stock solutions were stored at -80°C. […] Matched concentration solvent vehicle controls were used for each drug concentration. The drug screens were performed in triplicate and repeated three times for the monotherapies and twice for the combination treatments. The drug(s) and corresponding controls were plated in 96-well PCR plates (VWR) and stored at -20°C (Fig. 6). The drug plates were thawed, centrifuged (3000 rpm for 30s), and acclimatized to RT before the drugs were added to the cells. New drug plates were prepared for each drug screen.
(§4) The cells were seeded at a density of 4.0x10^3 to 7.5x10^3 (cell type-dependent) in 96-well clear, flat-bottom microplates (Corning Life Sciences, Sigma-Aldrich) in 100 µl culture medium supplemented with 10% FBS and cultured for 24h. Cell viability was determined using the resazurin assay after 24h drug treatment (Fig. 6). Percentage cell viability was calculated as 100% × (absorbance of treated cells – absorbance of background controls) / (absorbance of matched solvent vehicle controls – absorbance of background controls). Normalized growth rate inhibition (GR) was assessed using the absorbance of untreated cells after the time of plating (t = 0). […] For combination treatment, the monotherapy data were evaluated with the IDACombo (version 1.0.2)[20] package in R to predict potential drug combinations (Table 1). SynergyFinder (version 3.2.10)[21] package in R was used to identify synergistic drug combinations.

HCC38 cells = assay: Combination therapy, resazurin viability, SynergyFinder; format: cell-based, human
Method: as §1, §2, §3, §4

MCF-7 cells = assay: Resazurin-based cell viability assay, monotherapy drug screen; design: species or system human; AUC: scale not given here; details: for AUC: area under the dose response curve, 24 h; for GRmax: drug efficacy at highest tested dose (<0 cytotoxic, 0 cytostatic, >0 partial growth inhibition)
Summary of the method: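 Cells were seeded at the highest density (tested 1000-16000 cells/well) giving linear growth between days 1 and 3, keeping them in exponential phase over the ~52 h experiment. Viability was read after 4 h at 37 °C with 0.2 mg/ml resazurin added at 10% of medium volume; ex 560/em 615 nm.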

[2] = tested on: eight TNBC cell lines and two controls (MCF-10A and MCF-7); assay: Monotherapy drug screen, all investigated cell lines; format: cell-based, human; details: for drug potency classification, below the threshold: GR50 and AUC both below the threshold
Method: as §1, §2, §3, §4

[3] = tested on: control cell lines (MCF-10A and MCF-7); assay: Monotherapy drug screen, mean across the controls; format: cell-based, human; details: for area under the dose response curve (AUC), mean ± SD: 24 h; for IC50: 24 h drug treatment, read-out: GR50 (mean ± SD)
Method: as §1, §2, §3, §4

[4] = target: T1, β5 catalytic site of the 20 S proteasome (Homo sapiens, UniProt P28074); assay: Proteasome activity of the β5 catalytic site in MCF-7 cells (Suc-Leu-Leu-Val-Tyr-AMC substrate); format: cell-based; details: MCF7, read-out: inhibition of β5 activity
T1 construct: endogenous in cells; host or cells: MCF-7
Method: Proteasome activity of the β5 catalytic site was determined for the PIs using a Suc-Leu-Leu-Val-Tyr-AMC fluorescent proteasome substrate (Enzo Life Sciences, Cat. BML-P802) at a final concentration of 20 µM. MCF-7 cells were seeded at 7.5 × 10^3 cells/well in black 96-well flat-bottom microplates (Nuclon™ Delta Surface, ThermoFisher Scientific) with 100 µl culture medium supplemented with 10% FBS. After 24 h, the cells were treated for 6 h with the 11 PIs at 1, 10, 100, and 1000 nM and matched untreated controls.

CAL-148 cells = assay: Combination therapy, resazurin viability, SynergyFinder; format: cell-based, human
Method: as §1, §2, §3, §4

[5] = MCF-7, growth rate inhibition concentration at GR(c) = 0.5, 24 h, read-out: GR50 (the source's name)
[6] = metrics GR50 < 1.0 µM and AUC < 0.80
[7] = Homo sapiens, MCF7, MCF-7, growth rate inhibition concentration at GR(c) = 0.5, 24 h, read-out: GR50 (the source's name)
[8] = Homo sapiens, MCF7, 24 h, read-out: GR50 (µM)
[9] = MCF-7, 24 h drug treatment, read-out: IC50
[10] = Homo sapiens, MCF7, MCF-7, 24 h drug treatment, read-out: IC50

Compound	cytotoxic effect at the highest dose [1]	AUC (MCF-7 cells; MCF-7)	GRmax (MCF-7 cells; MCF-7)	IC50 (MCF-7 cells; [5]) [µM]	drug potency classification [2, 6]	area under the dose response curve (AUC), mean ± SD ([1]; 24 h)	IC50 (MCF-7 cells; [7]) [µM]	further results
N.N.O=C([O-])C1(C(=O)[O-])CCC1.[Pt+2] [Carboplatin]	lowest cytotoxic effects	0.91	−0.15	0.36	–	–	–	Inhibition (%) (HCC38 cells; carboplatin 8 µM alone): −3.64%; Inhibition (%) (HCC38 cells; carboplatin 32 µM alone): −1.55%; Inhibition (%) (HCC38 cells; carboplatin 128 µM alone): 0.55%; Inhibition (%) (HCC38 cells; carboplatin 512 µM alone): 11.55%
CC(C)C[C@H](NC(=O)[C@H](CCc1ccccc1)NC(=O)CN1CCOCC1)C(=O)N[C@@H](Cc1ccccc1)C(=O)N[C@@H](CC(C)C)C(=O)[C@@]1(C)CO1 [Carfilzomib]	–	0.81	−0.45	–	potent drugs	0.73 ± 0.10	0.19	drug potency classification, below the threshold [2]: highly potent drugs; IC50 ([1]; Homo sapiens, 24 h): 440 ± 340 nM
CC1=C(O)C(=O)C=C2C1=CC=C1[C@@]2(C)CC[C@@]2(C)[C@@H]3C[C@](C)(C(=O)O)CC[C@]3(C)CC[C@]12C [Celastrol]	cytotoxic	0.89	−0.30	–	–	–	–	IC50 (MCF-7 cells; Homo sapiens, MCF7, 24 h): 2.8 µM; IC50 (MCF-7 cells; [8]): 3.3 µM
N.N.[Cl][Pt][Cl] [Cisplatin]	–	0.66	−0.96	0.015	potent drugs	0.51 ± 0.10	–	IC50 (MCF-7 cells; [9]): 0.16 µM; area under the dose response curve (AUC), mean ± SD [3]: 0.54 ± 0.12
CC(=O)O[C@@]12CO[C@@H]1C[C@H](O)[C@@]1(C)C(=O)[C@H](O)C3=C(C)[C@@H](OC(=O)[C@H](O)[C@@H](NC(=O)OC(C)(C)C)c4ccccc4)C[C@@](O)([C@@H](OC(=O)c4ccccc4)[C@H]21)C3(C)C [Docetaxel]	–	0.75	−0.44	–	potent drugs	0.79 ± 0.10	0.0065	drug potency classification, below the threshold [2]: highly potent drugs; IC50 ([1]; Homo sapiens, 24 h): 8.8 ± 3.9 nM; IC50 ([3]; Homo sapiens): 7.8 ± 1.3 nM
COc1cccc2c1C(=O)c1c(O)c3c(c(O)c1C2=O)C[C@@](O)(C(=O)CO)C[C@@H]3O[C@H]1C[C@H](N)[C@H](O)[C@H](C)O1 [Doxorubicin]	lowest cytotoxic effects	0.93	0.44	–	–	–	5.7	IC50 (MCF-7 cells; [10]): 1.8 µM
COc1cccc2c1C(=O)c1c(O)c3c(c(O)c1C2=O)C[C@@](O)(C(=O)CO)C[C@@H]3O[C@H]1C[C@H](N)[C@@H](O)[C@H](C)O1 [Epirubicin]	lowest cytotoxic effects	0.89	0.42	–	–	–	1.1	IC50 (MCF-7 cells; [10]): 1.5 µM
CC[C@H](C)[C@H](NC(=O)[C@H]([C@@H](C)CC)N(C)C(C)=O)C(=O)N[C@H](C(=O)N[C@@H](CC(C)C)C(=O)[C@@]1(C)CO1)[C@@H](C)O [Epoxomicin]	lowest cytotoxic effects	0.74	0.42	0.075	–	0.69 ± 0.10	–	drug potency classification [2]: potent drugs; drug potency classification, below the threshold [2]: highly potent drugs; IC50 ([1]; across the TNBC cell lines, 24 h drug treatment): 220 ± 230 nM; IC50 (MCF-7 cells; [9]): 1.2 µM; area under the dose response curve (AUC), mean ± SD [3]: 0.66 ± 0.080; IC50 [3]: 85 ± 10 nM
CC(C)C[C@@H](C=O)NC(=O)[C@H](CC(C)C)NC(=O)[C@H](CC(C)C)NC(=O)OCc1ccccc1 [MG 132, MG-132] (Cbz-Leu-Leu-Leu-aldehyde)	–	0.87	−0.32	–	–	–	–	IC50 (MCF-7 cells; [8]): 0.57 µM; inhibition at 10 µM [4]: 25%
[NH2][Pt]1([NH2])[O]CC(=O)[O]1 [Nedaplatin]	cytotoxic	0.82	−0.57	0.075	potent drugs	0.68 ± 0.10	–	Inhibition (%) (CAL-148 cells; nedaplatin 8 µM alone): −9.21%; Inhibition (%) (CAL-148 cells; nedaplatin 32 µM alone): 2.14%; Inhibition (%) (CAL-148 cells; nedaplatin 128 µM alone): 9.01%; Inhibition (%) (CAL-148 cells; nedaplatin 512 µM alone): 49.72%; area under the dose response curve (AUC), mean ± SD [3]: 0.70 ± 0.13
COC[C@H](NC(=O)c1cnc(C)s1)C(=O)N[C@@H](COC)C(=O)N[C@@H](Cc1ccccc1)C(=O)[C@@]1(C)CO1 [Oprozomib]	–	0.88	−0.45	–	–	–	0.27	–
CC(=O)O[C@H]1C(=O)[C@@]2(C)[C@H]([C@H](OC(=O)c3ccccc3)[C@]3(O)C[C@H](OC(=O)[C@H](O)[C@@H](NC(=O)c4ccccc4)c4ccccc4)C(C)=C1C3(C)C)[C@]1(OC(C)=O)CO[C@@H]1C[C@@H]2O [Paclitaxel]	–	0.79	−0.56	–	–	–	0.041	inhibition at 0.01 µM (HCC38 cells; Homo sapiens, paclitaxel 10 nM alone): -0.18%; inhibition at 0.078 µM (HCC38 cells; Homo sapiens, paclitaxel 78 nM alone): 10.6%; inhibition at 0.625 µM (HCC38 cells; Homo sapiens, paclitaxel 625 nM alone): 21.1%; inhibition at 5 µM (HCC38 cells; Homo sapiens, paclitaxel 5000 nM alone): 24.7%
